The values below come from US10723766B2, “Derivatives of gamma-amanitin” (Heidelberg Pharma Research GmbH, priority 2015, dated 2020).

For test [1] the following is noted: Zanotti et al., 1989; cited from earlier work.
In test [2] the test system is SKOV3 cells. As to the kind of experiment: viability of SKOV3 cells treated with amatoxins (FIG. 3). The format is cell-based.
Test [3] addresses RNA-polymerase II (Homo sapiens, UniProt P24928). To be noted: not covalently bound, very tight complex; read-out: KD of complex between amanitin and RNA-polymerase II; cited from earlier work.

On to “S-deoxo-γ(R)-hydroxy-isoleucin-amaninamide”, for which the biological activity result in test [1] is “biologically inactive”.
Regarding `CC[C@H](C)[C@@H]1NC(=O)CNC(=O)C2Cc3c([nH]c4cc(O)ccc34)[S@+]([O-])CC(NC(=O)CNC1=O)C(=O)N[C@@H](CC(N)=O)C(=O)N1CC(O)C[C@H]1C(=O)N[C@@H]([C@@H](C)[C@H](C)O)C(=O)N2` (stereo partly drawn) [γ-amanitin (4), γ-amanitin], the EC50 in test [2] was 270 nM.
Consider amanitin, for which the dissociation constant Kd in test [3] was 3 nM.

In general, EC50 refers to the concentration at which the effect is half-maximal. By Kd is commonly meant the concentration at which binding is half-saturated.
